From patent US20160120949A1, “USES OF IL-12 IN HEMATOPOIETIC IMMUNOTHERAPY (HIT)” (Neumedicines, Inc., priority 2014, published 2016)
Where a name gives a salt, the structure may show the parent alone.

Columns and labels:
[1] = system: non-human primates (rhesus monkeys); assay: Pharmacodynamic response (IFN-γ) in non-human primates in vitro and in vivo; conditions: both in vitro and in vivo
[2] = system: Irradiated, Unsupported Rhesus Monkeys; assay: Radiomitigation study in myeloablated, lethally irradiated, unsupported nonhuman primates; format: in vivo
Procedure: FIG. 3: Kaplan-Meier Survival Curves of Irradiated, Unsupported Monkeys Treated with HemaMax™. Pooled HemaMax™ dosing group is shown. No antibiotics were used during the study. One animal with a broken tooth was excluded from the study because of an unrelated death to the study. p<0.05 pooled treatment groups.
FIGS. 4A-4B: Leukocyte (A) and Thrombocyte (B) Counts in Irradiated, Unsupported Rhesus Monkeys Treated With HemaMax™. Three analyses were conducted to assess differences in blood cell counts during the study period.
FIG. 4 describes […] Counts in Irradiated, Unsupported Rhesus Monkeys Treated With HemaMax™. Three analyses were conducted to assess differences in blood cell counts during the study period.

[3] = system: human immune cells; assay: Pharmacodynamic response (IFN-γ) in human immune cells in vitro; format: cell-based
[4] = cited from earlier work
[5] = controlled room temperature 20° C. to 25° C.; cited from earlier work
[6] = cited from earlier work; remark: listed apart in the source
[7] = infusion time beyond 60 minutes; cited from earlier work
[8] = system: Lin-IL-12Rβ2-cells; assay: Megacult colony culture with and without IL-12; format: cell-based; conditions: megacult medium, 5000 cells/slide
Procedure: FIG. 7: Lin-IL-12Rβ2-cells were plated in megacult medium at 5000 cells/slide with and without IL-12.
By way of example, FIG. 7 describes Lin-IL-12RB2-cells were plated in megacult medium at 5000 cells/slide with and without IL-12.

[9] = system: femoral bone marrow; assay: Hematopoietic recovery in irradiated mice (TBI 8.0 Gy), femoral bone marrow IHC for IL-12Rβ2; format: in vivo; conditions: 20 ng/mouse subcutaneously post irradiation, 12 days after irradiation
Procedure: FIGS. 6A-6F: Murine IL-12 Promotes Hematopoietic Recovery in Irradiated Mice. Representative sections of femoral bone marrow from non-irradiated, untreated mice that were stained for IL-12Rβ2 are shown in (A). Animals were subjected to TBI (8.0 Gy) and subsequently received vehicle or rMuIL-12 (20 ng/mouse) subcutaneously at the indicated times post irradiation (B-F). Femoral bone marrow was immunohistochemically stained for IL-12Rβ2 (orange color) 12 days after irradiation. […] Magnification=100×.
By way of example, FIG. 6 describes Murine IL-12 Promotes Hematopoietic Recovery in Irradiated Mice. Representative sections of femoral bone marrow from non-irradiated, untreated mice that were stained for IL-12Rβ2 (orange color) are shown in (a). Animals were subjected to TBI (8.0 Gy) and subsequently received vehicle or rMuIL-12 (20 ng/mouse) subcutaneously at the indicated times post irradiation (b-f). Femoral bone marrow was immunohistochemically stained for IL-12Rβ2 (orange color) 12 days after irradiation.

[10] = system: EL4 lymphoma tumor model; assay: Tumor volume after radiation (625 rad), EL4 lymphoma tumor model; format: in vivo, mice; conditions: 625 rad day 1 and second dose day 22, pre, post and pre-post radiation dosing groups, endpoint of tumor volume evaluation
From the text: (§1) FIGS. 2A-2B: Relative Changes in Tumor Volumes for Vehicle and rMuIL-12 Treatment Groups Following Radiation (625 rad). Changes in tumor volumes over the course of the experiment are shown for the EL4 lymphoma tumor model (A) and the Lewis Lung cancer tumor model (B). Mice in both tumor models were given 625 rad on day 1. Mice in both tumor models were given a second dose of radiation on day 22 following the initial radiation dose.
as §1, with “FIG. 2 A-B describe” for “FIGS. 2A-2B:”, “(a)” for “(A)”, “(b).” for “(B).”

[11] = system: Lewis Lung tumor cells; assay: Lewis Lung mouse tumor model with concomitant GC chemotherapy, tumor volume; format: in vivo; conditions: 20 ng subcutaneously before, after or before/after GC; differences not statistically significant
Procedure: The effect of rMuIL-12 administration on tumor growth in a mouse tumor chemotherapy model was evaluated. The tumor model used Lewis Lung tumor cells that were subcutaneously injected (100,000 cells) in each mouse. At a given time after tumor inoculation, mice were treated with chemotherapy. The gemcitabine/carboplatin chemotherapy regimen as described above was used and administered IP. rMuIL-12 was administered subcutaneously (20 ng) before, after, or before/after chemotherapy as indicated below.
Pre-dosing (n=16): rMuIL-12 was given 24 hours before chemotherapy treatment,
Post-dosing (n=16): rMuIL-12 was administered 48 hours after chemotherapy treatment
Pre/post dosing (n=16): rMuIL-12 was given 24 hours before chemotherapy and 48 hours after chemotherapy. Control (n=16)
Tumor volume was monitored over time to compared tumor growth in the control compared to rMuIL-12 treated mice. […] The differences among groups in tumor growth were not statistically significant.

[12] = system: Lewis Lung tumor; assay: Lewis Lung tumor model with two rounds of gemcitabine monotherapy, tumor volume; format: in vivo, mouse; conditions: gemcitabine 6.6 mg IP twice, one week apart; differences not statistically significant
Procedure: The study evaluate the effect of rMuIL-12 on tumor growth in a mouse chemotherapy model was followed up with a second study to examine the growth in the same Lewis Lung model when gemcitabine was used as monotherapy and administered two times, one week apart. rMuIL-12 was also administered as pre-dosing and post-dosing, as described above, and also with a 24 hour post group and on the same day as chemotherapy administration. rMuIL-12 was administered at either both weeks of chemotherapy or only the first week. There were five groups with n=5 for each group. These groups are described below: Chemotherapy once weekly: Gemcitabine only, administered IP, 6.6 mg rMuIL-12 given weekly, three schedules: 24 hours pre-chemotherapy (Pre); Same day as chemotherapy (SD); 24 hours post chemotherapy (Post1=24 hrs-post; Post2=48 hrs-post).
By way of example, FIG. 10 describes Lewis Lung Tumor Volume of Mice Under Monotherapy With Gemcitabine Receiving rMuIL-12. Day 0 is the time of the first chemotherapy. The second chemotherapy administration took place at day 7. […] The differences in growth among groups were not statistically significant.

[13] = system: Lewis Lung cancer tumor model; assay: Tumor volume after radiation (625 rad), Lewis Lung cancer tumor model; format: in vivo, mice; conditions: 625 rad day 1 and second dose day 22, rMuIL-12 post-treatment, endpoint of tumor growth evaluation
From the text: as §1
as §1, with “FIG. 2 A-B describe” for “FIGS. 2A-2B:”, “(a)” for “(A)”, “(b).” for “(B).”

[14] = system: platelets; assay: Chemotherapy induced thrombocytopenia (CIT) model, gemcitabine/carboplatin (GC) chemotherapy, platelet counts; format: in vivo, mice; conditions: for % platelet counts from baseline (average and standard deviation): day 8
Procedure: The effect of rMuIL-12 administration in conjunction with gemcitabine/carboplatin chemotherapy (GC) (6.6 mg gemcitabine dose+2 mg carboplatin) was examined. Mice received GC intravenously on day 0.
Pre-dosing: rMuIL-12 was given 24 hours before chemotherapy treatment (n=18)
Post-dosing: rMuIL-12 was administered 48 hours after chemotherapy treatment (n=19) Pre/post dosing: rMuIL-12 was given 24 hours before chemotherapy and 48 hours after chemotherapy (n=13)
Averages of % platelet counts from baseline and standard deviations for each group at day 8 were: […]

[15] = system: neutrophils, red blood cells and platelets; assay: Blood recovery after myelosuppressive radiation (625 rad), Lewis lung cancer model; format: in vivo, mice; conditions: days 14-21
From the text: (§2) FIGS. 1A-1B: Blood Recovery Profiles for Vehicle and rMuIL-12 Administered Before and After Myelosuppresive Radiation (625 rad). Blood cell recovery profiles are shown for the EL4 lymphoma tumor model (A) and the Lewis lung cancer model (B) for neutrophils, red blood cells and platelets. Pre-radiation blood values reflect an average of all animals in both groups before radiation and tumor inoculation. The normal threshold value for murine blood cell counts is indicated by the dashed line.
(§3) Platelet recovery profiles are shown for the EL4 lymphoma tumor model (a) and the Lewis lung cancer model (b).

[16] = system: neutrophils, red blood cells and platelets; assay: Blood recovery after myelosuppressive radiation (625 rad), EL4 lymphoma tumor model; format: in vivo, mice; conditions: days 14-21
From the text: as §2, §3

[17] = days 12 and 14, 100 ng/kg and 250 ng/kg doses
[18] = rMuIL-12 before and after 625 rad

## HemaMax: recombinant human IL-12, heterodimeric glycoprotein of p35 and p40 subunits, 503 amino acids, produced in CHO cells
[1]
  pharmacodynamic response (interferon-γ [IFN-γ]): potently elicits
[2]; [17]
  numbers of leukocytes as compared to vehicle: significantly higher numbers
  numbers of thrombocytes as compared to vehicle: significantly higher numbers
[2]; lethal radiation NHP study, vehicle 80%
  monkeys that required a platelet transfusion: 25%
[2]; lethally irradiated NHP
  platelet and WBC nadirs: attenuates
[2]; lethally irradiated NHP, no antibiotics, pooled dosing groups
  survival: increases survival
[3]
  pharmacodynamic response (interferon-γ [IFN-γ]): potently elicits

## Nc1ccn([C@@H]2O[C@H](CO)[C@@H](O)C2(F)F)c(=O)n1 [Gemzar, 2′-deoy-2′,2′-difluorocytidine monohydrochloride (β-isomer)]
[4]; 0.9% Sodium Chloride Injection
  maximum concentration upon reconstitution (solubility considerations): 40 mg/mL
[4]; ethanol and polar organic solvents
  solubility in ethanol and polar organic solvents: practically insoluble in ethanol and polar organic
[4]; methanol
  solubility in methanol: slightly soluble
[4]; water
  solubility in water: soluble
[5]
  stability of prepared solutions: 24 h
[6]; animal studies
  acute dermal irritation: not been observed
[6]; rabbits, dermal
  rabbits with drug-related systemic toxicities (death, hypoactivity, nasal discharge, shallow breathing) due to dermal absorption: two of three
[7]
  toxicity on prolongation of infusion time beyond 60 minutes: minutes has been shown to increase toxicity.

B1: IL-12: heterodimeric cytokine comprising p40 and p35 subunits; species of the IL-12 used in the megacult culture not stated (protein, UniProt P29459 23-219; P29460 23-328, looked up)
Interleukin-12 subunit alpha: RNLPVATPDPGMFPCLHHSQNLLRAVSNMLQKARQTLEFYPCTSEEIDHEDITKDKTSTVEACLPLELTKNESCLNSRETSFITNGSCLASRKTSFMMALCLSSIYEDLKMYQVEFKTMNAKLLMDPKRQIFLDQNMLAVIDELMQALNFNSETVPQKSSLEEPDFYKTKIKLCILLHAFRIRAVTIDRVMSYLNAS
Interleukin-12 subunit beta: IWELKKDVYVVELDWYPDAPGEMVVLTCDTPEEDGITWTLDQSSEVLGSGKTLTIQVKEFGDAGQYTCHKGGEVLSHSLLLLHKKEDGIWSTDILKDQKEPKNKTFLRCEAKNYSGRFTCWWLTTISTDLTFSVKSSRGSSDPQGVTCGAATLSAERVRGDNKEYEYSVECQEDSACPAAEESLPIEVMVDAVHKLKYENYTSSFFIRDIIKPDPPKNLQLKPLKNSRQVEVSWEYPDTWSTPHSYFSLTFCVQVQGKSKREKKDRVFTDKTSATVICRKNASISVRAQDRYYSSSWSEWASVPCS
[8]
  colony size in comparison to media alone: larger colonies

B2: rMuIL-12: murine recombinant IL-12, the murine counterpart to HemaMax (protein, UniProt P43431 23-215; P43432 23-335, looked up)
Interleukin-12 subunit alpha: RVIPVSGPARCLSQSRNLLKTTDDMVKTAREKLKHYSCTAEDIDHEDITRDQTSTLKTCLPLELHKNESCLATRETSSTTRGSCLPPQKTSLMMTLCLGSIYEDLKMYQTEFQAINAALQNHNHQQIILDKGMLVAIDELMQSLNHNGETLRQKPPVGEADPYRVKMKLCILLHAFSTRVVTINRVMGYLSSA
Interleukin-12 subunit beta: MWELEKDVYVVEVDWTPDAPGETVNLTCDTPEEDDITWTSDQRHGVIGSGKTLTITVKEFLDAGQYTCHKGGETLSHSHLLLHKKENGIWSTEILKNFKNKTFLKCEAPNYSGRFTCSWLVQRNMDLKFNIKSSSSSPDSRAVTCGMASLSAEKVTLDQRDYEKYSVSCQEDVTCPTAEETLPIELALEARQQNKYENYSTSFFIRDIIKPDPPKNLQMKPLKNSQVEVSWEYPDSWSTPHSYFSLKFFVRIQRKKEKMKETEEGCNQKGAFLVEKTSTEVQCKGGNVCVQAQDRYYNSSCSKWACVPCRVRS
[9]
  hematopoietic recovery in femoral bone marrow: hematopoietic reconstitution
[10]
  tumor growth % T/C: < 50%
[11]
  tumor growth (tumor volume): did not increase tumor growth
[12]
  tumor growth rate (tumor volume): did not increase the tumor growth rate
[13]
  tumor growth % T/C: < 50%
[14]; all rMuIL-12 treated groups
  animals with a decrease in platelets of more than 33%: 0 out of 50
[14]; Post-dosing: 48 hours after chemotherapy
  % platelet counts from baseline (average and standard deviation): 110±37%
[14]; Pre-dosing: 24 hours before chemotherapy
  % platelet counts from baseline (average and standard deviation): 79±34%
[14]; Pre/Post dosing: 24 hours before and 48 hours after chemotherapy
  % platelet counts from baseline (average and standard deviation): 111±33%
[14]; rMuIL-12 prior to, after or both prior to and after chemotherapy, 8 days after chemotherapy
  mice with platelet levels that dropped one-third of baseline level or more: 0%
[15]; 625 rad
  platelet counts as compared to the vehicle control: statistically significant improvements
[15]; [18]
  blood cell counts as compared to the vehicle control: statistically significant improvements
[16]; 625 rad
  platelet counts as compared to the vehicle control: statistically significant improvements
[16]; [18]
  blood cell counts as compared to the vehicle control: statistically significant improvements
